Reference: patent publication US20110021507A1, “INHIBITING ANTIPSYCHOTIC-INDUCED WEIGHT GAIN” (Theracos, Inc., priority 2009, published 2011)

How the values were obtained:
[1] = tested on: cardiac receptors; details: cited from earlier work
[2] = tested on: cortical receptors; details: cited from earlier work
[3] = tested on: muscarinic receptor; details: cited from earlier work
[4] = Olanzapine-induced weight gain in a rat model (Alzet minipumps); format: in vivo, Wistar-Han female rats; details: OLZ 10 mg/kg/day; for effect on weight gain (main effect of Treatment, 2-way repeated measures ANOVA): OLZ vs VEH p=0.042, OLZ vs OLZ+TZP p=0.01, TZP 5 mg/kg/day
Description: Arrow indicates pump implantation and solid bar over the x-axis indicates the drug treatment interval. Telenzepine was administered at a dose of 5 mg/kg/day. […] The solid line indicates the effect of OLZ administered alone (OLZ-Induced weight gain), while dashed lines indicate groups receiving TZP, either alone (dashed line) or co-administered with the 10.0 mg/kg OLZ dose (dot-dash-dot line). The dotted line indicates the weight gain in animals receiving only Vehicle treatments. […] The rats were divided into the following four groups: Group 1—Control: Vehicle (NMP:DMSO:PEG) alone Group 2—OLZ (10 mg/kg/day) alone Group 3—TZP (5 mg/kg/day) alone Group 4—OLZ (10 mg/kg/day)+TZP (5 mg/kg/day) […] Two 2-way repeated measures ANOVAs were run: 1) Comparing No Treatment (VEH) to OLZ alone (addressing the question of whether or not OLZ induced weight gain), 2) Comparing OLZ alone to OLZ+TZP (addressing the question of whether or not TZP co-administration prevented OLZ-Induced weight gain).

[5] = patients being administered olanzapine; cited from earlier work
[6] = at 90 degrees; cited from earlier work

In the case of Cc1scc2c1N(C(=O)CN1CCN(C)CC1)c1ccccc1NC2=O [(+) form of telenzepine], the “factor by which the (+) form is more potent than the (−) form” value [1] is listed as 50, the “factor by which the (+) form is more effective than the (−) isomer” value [2] is listed as 400 and the antimuscarinic activity [3] is listed as “potent antimuscarinic activity”.
In the case of Cc1scc2c1N(C(=O)CN1CCN(C)CC1)c1ccccc1NC2=O [(−) form], the antimuscarinic activity [3] is listed as “considerably less active”.
In the case of Cc1cc2c(s1)Nc1ccccc1N=C2N1CCN(C)CC1 [Olanzapine, 2-methyl-4-(4-methyl-1-piperazinyl)-10H-thieno[2,3-b][1,5]benzodiazepine], the “effect on weight gain (main effect of Treatment, 2-way repeated measures ANOVA)” value [4] is given as “induced a significant amount of weight gain over No Treatment controls”, the “difference in weight gain versus Vehicle treated rats” value ([4]; Treatment Day 12 (peak OLZ-induced gain), TZP 5 mg/kg/day by minipump) is given as 6.2% and the “patients experiencing bodyweight gain of greater than 7%” value [5] is given as at most 30%.
For Cc1scc2c1N(C(=O)CN1CCN(C)CC1)c1ccccc1NC2=O [Telenzepine, 4,9-Dihydro-3-methyl-4-[(4-methyl-1-piperazinyl)acetyl]-10H-thieno[3,4-b][1,5]benzodiazepin-10-one], the “half time of interconversion of the two forms” value [6] is listed as “approximately 200 hours” and the “effect on weight gain (main effect of Treatment, 2-way repeated measures ANOVA)” value [4] is listed as “significant reduction in OLZ-induced weight gain”.
